Measured values as given in patent publication US20240148821A1, “PHARMACEUTICAL USE OF CYCLIC PEPTIDE COMPOUND” (CHUGAI SEIYAKU KABUSHIKI KAISHA, priority 2021, published 2024).
Numbered stars: 1 amine (or outer) side, 2 acyl side, 3 side chain; on linkers, the order of the positions; unused ones are H or OH. Bridge positions count the residues as written; N and C are the ends. Square brackets hold non-standard residues; d marks the D form. Peptide text beside a SMILES is read from it. * marks the point of attachment. hPhe(3-Cl-4-CF3) = N[C@@H](CCc1ccc(C(F)(F)F)c(Cl)c1)C(=O)O; NMePhe(4-CF3) = CN[C@@H](Cc1ccc(C(F)(F)F)cc1)C(=O)O; NMePhe(4-Me) = CN[C@@H](Cc1ccc(C)cc1)C(=O)O; NMedβ3hAla = C[C@H](CC(=O)[*:2])N(C)[*:1]; NMeGly(cPent) = CN[C@H](C(=O)O)C1CCCC1; NMe3Pal = CN[C@@H](Cc1cccnc1)C(=O)O; NMeCha = CN[C@@H](CC1CCCCC1)C(=O)O; Hyp = O=C(O)[C@@H]1C[C@@H](O)CN1; NMeAhp(2) = CCCCC[C@H](NC)C(=O)O; NMeChg = CN[C@H](C(=O)O)C1CCCCC1; NMeF = CN[C@@H](Cc1ccccc1)C(=O)O; NMeI = CC[C@H](C)[C@H](NC)C(=O)O; NMeD = CN[C@@H](CC(=O)O)C(=O)O; dNMeD = CN[C@H](CC(=O)O)C(=O)O; NMeL = CN[C@@H](CC(C)C)C(=O)O; NMeNle = CCCC[C@H](NC)C(=O)O; NMeV = CN[C@H](C(=O)O)C(C)C; d(β3hA) = C[C@@H](N)CC(=O)O; NMeS = CN[C@@H](CO)C(=O)O; Morpholide = C1CN(*)CCO1; NMeA = CN[C@@H](C)C(=O)O; Piperidide = C1CCN(*)CC1; Pyrrolidide = C1CCN(*)C1; dNMeA = CN[C@H](C)C(=O)O; Ac5c = NC1(C(=O)O)CCCC1; Aze = O=C(O)[C@@H]1CCN1; Cyclopropyl = C1CC1*; Sar = CNCC(=O)O; Propyl = CCC*

What follows are molecules tested against protein-protein interaction between Kras and SOS1 (biotin-tagged human Kras loaded with GDP, His-tagged human SOS1) (Homo sapiens (Human), UniProt P01116, G12D) (assay: Protein-protein interaction inhibition between Kras and SOS1 (KrasG12D-SOS PPI) using AlphaScreen). Settings: AlphaScreen; biotin-tagged human Kras loaded with GDP, His-tagged human SOS1; read-out: KRAS G12D-SOS PPI IC50.
Type: biochemical
`CC[C@H](C)[C@@H]1NC(=O)[C@H](CC(C)C)N(C)C(=O)C[C@@H](C(=O)N2CCCC2)N(C)C(=O)[C@H](C2CCCCC2)N(C)C(=O)C2(CCCC2)NC(=O)[C@H](Cc2cccnc2)N(C)C(=O)[C@H](CCc2ccc(C(F)(F)F)c(Cl)c2)NC(=O)CN(C)C(=O)[C@H](CC2CCCCC2)N(C)C(=O)CN(C)C(=O)CN(C)C1=O` [Compound 1693] ([NMeL]I[Sar][Sar][NMeCha][Sar][hPhe(3-Cl-4-CF3)][NMe3Pal][Ac5c][NMeChg][NMeD]-Pyrrolidide; lactam N-11) was tested, and the IC50 was 1.7 nM. `CCCCC[C@H]1C(=O)N[C@@H]([C@@H](C)CC)C(=O)N(C)[C@@H](C)C(=O)N2CC[C@H]2C(=O)N(C)[C@@H](CC2CCCCC2)C(=O)N(C)CC(=O)N[C@@H](CCc2ccc(C(F)(F)F)c(Cl)c2)C(=O)N2CCC[C@H]2C(=O)NC2(CCCC2)C(=O)N(C)[C@@H](C(C)C)C(=O)N(C)[C@H](C(=O)N2CCCCC2)CC(=O)N1C` [Compound 1705] ([NMeAhp(2)]I[NMeA][Aze][NMeCha][Sar][hPhe(3-Cl-4-CF3)]P[Ac5c][NMeV][NMeD]-Piperidide; lactam N-11) gave an IC50 of 9.8 nM. Molecule `CCCC[C@H]1C(=O)N(C)CC(=O)N[C@@H](CCc2ccc(C(F)(F)F)c(Cl)c2)C(=O)N2CCC[C@H]2C(=O)NC2(CCCC2)C(=O)N(C)[C@@H](C(C)C)C(=O)N(C)[C@H](C(=O)N2CCCCC2)CC(=O)N(C)[C@@H](CC(C)C)C(=O)N[C@@H]([C@@H](C)CC)C(=O)N(C)[C@@H](C)C(=O)N2CC[C@H]2C(=O)N1C` [Compound 1712] ([NMeL]I[NMeA][Aze][NMeNle][Sar][hPhe(3-Cl-4-CF3)]P[Ac5c][NMeV][NMeD]-Piperidide; lactam N-11) has an IC50 of 9.8 nM. With `CC[C@H](C)[C@@H]1NC(=O)[C@H](CC(C)C)N(C)C(=O)C[C@@H](C)N(C)C(=O)[C@H](C2CCCC2)N(C)C(=O)C2(CCCC2)NC(=O)[C@@H]2CCCN2C(=O)[C@H](CCc2ccc(C(F)(F)F)c(Cl)c2)NC(=O)CN(C)C(=O)[C@H](CC2CCCCC2)N(C)C(=O)[C@@H]2CCN2C(=O)[C@H](C)N(C)C1=O` [Compound 1717] (cyclo([Ac5c][NMeGly(cPent)][NMedβ3hAla][NMeL]I[NMeA][Aze][NMeCha][Sar][hPhe(3-Cl-4-CF3)]P)) the IC50 was 3.3 nM. `CC[C@H](C)[C@@H]1NC(=O)[C@H](CC(C)C)N(C)C(=O)C[C@@H](C(=O)N2CCCCC2)N(C)C(=O)[C@H]([C@@H](C)CC)N(C)C(=O)C2(CCCC2)NC(=O)[C@@H]2CCCN2C(=O)[C@H](CCc2ccc(C(F)(F)F)c(Cl)c2)NC(=O)CN(C)C(=O)[C@H](CC2CCCCC2)N(C)C(=O)[C@@H]2CCN2C(=O)[C@H](C)N(C)C1=O` [Compound 1722] ([NMeL]I[NMeA][Aze][NMeCha][Sar][hPhe(3-Cl-4-CF3)]P[Ac5c][NMeI][NMeD]-Piperidide; lactam N-11) gave an IC50 of 2.8 nM. `CC[C@H](C)[C@@H]1NC(=O)[C@H](CC(C)C)N(C)C(=O)C[C@@H](C(=O)N2CCCCC2)N(C)C(=O)[C@H]([C@@H](C)CC)N(C)C(=O)C2(CCCC2)NC(=O)[C@@H]2CCCN2C(=O)[C@H](CCc2ccc(C(F)(F)F)c(Cl)c2)NC(=O)CN(C)C(=O)[C@H](Cc2ccc(C)cc2)N(C)C(=O)[C@@H]2CCN2C(=O)[C@H](C)N(C)C1=O` [Compound 1727] ([NMeL]I[NMeA][Aze][NMePhe(4-Me)][Sar][hPhe(3-Cl-4-CF3)]P[Ac5c][NMeI][NMeD]-Piperidide; lactam N-11) gave an IC50 of 1.2 nM. With `CC[C@H](C)[C@@H]1NC(=O)[C@H](CC(C)C)N(C)C(=O)C[C@@H](C(=O)N2CCCCC2)N(C)C(=O)[C@H](C(C)C)N(C)C(=O)C2(CCCC2)NC(=O)[C@@H]2CCCN2C(=O)[C@H](CCc2ccc(C(F)(F)F)c(Cl)c2)NC(=O)CN(C)C(=O)[C@H](C(C)C)N(C)C(=O)[C@@H]2CCN2C(=O)[C@H](C)N(C)C1=O` [Compound 1737] ([NMeL]I[NMeA][Aze][NMeV][Sar][hPhe(3-Cl-4-CF3)]P[Ac5c][NMeV][NMeD]-Piperidide; lactam N-11) the IC50 was 8.3 nM. `CCO[C@@H]1C[C@H]2C(=O)NC3(CCCC3)C(=O)N(C)[C@@H](CC(C)C)C(=O)N(C)[C@H](C(=O)N3CCCC3)CC(=O)N(C)[C@@H](CC(C)C)C(=O)N[C@@H]([C@@H](C)CC)C(=O)N(C)CC(=O)N(C)CC(=O)N(C)[C@@H](CC3CCCCC3)C(=O)N(C)CC(=O)N[C@@H](CCc3ccc(C(F)(F)F)c(Cl)c3)C(=O)N2C1` [Compound 1748] ([NMeL]I[Sar][Sar][NMeCha][Sar][hPhe(3-Cl-4-CF3)][Hyp](Et)[Ac5c][NMeL][NMeD]-Pyrrolidide; lactam N-11) showed an IC50 of 0.61 nM. Molecule `CC[C@H](C)[C@@H]1NC(=O)[C@H](CC(C)C)N(C)C(=O)C[C@@H](C(=O)N2CCOCC2)N(C)C(=O)[C@H](C(C)C)N(C)C(=O)C2(CCCC2)NC(=O)[C@@H]2CCCN2C(=O)[C@H](CCc2ccc(C(F)(F)F)c(Cl)c2)NC(=O)CN(C)C(=O)[C@H](CC2CCCCC2)N(C)C(=O)[C@@H]2CCN2C(=O)CN(C)C1=O` [Compound 1758] ([NMeL]I[Sar][Aze][NMeCha][Sar][hPhe(3-Cl-4-CF3)]P[Ac5c][NMeV][NMeD]-Morpholide; lactam N-11) has an IC50 of 1.2 nM. With `CCCOC[C@H]1C(=O)N[C@@H]([C@@H](C)CC)C(=O)N(C)[C@@H](C)C(=O)N2CC[C@H]2C(=O)N(C)[C@@H](CC2CCCCC2)C(=O)N(C)CC(=O)N[C@@H](CCc2ccc(C(F)(F)F)c(Cl)c2)C(=O)N2CCC[C@H]2C(=O)NC2(CCCC2)C(=O)N(C)[C@@H](C(C)C)C(=O)N(C)[C@H](C(=O)N2CCCCC2)CC(=O)N1C` [Compound 1763] ([NMeS](Propyl)I[NMeA][Aze][NMeCha][Sar][hPhe(3-Cl-4-CF3)]P[Ac5c][NMeV][NMeD]-Piperidide; lactam N-11) the IC50 was 4.5 nM. `CC[C@H](C)[C@@H]1NC(=O)[C@H](COC2CC2)N(C)C(=O)C[C@@H](C(=O)N2CCCCC2)N(C)C(=O)[C@H](C(C)C)N(C)C(=O)C2(CCCC2)NC(=O)[C@@H]2CCCN2C(=O)[C@H](CCc2ccc(C(F)(F)F)c(Cl)c2)NC(=O)CN(C)C(=O)[C@H](CC2CCCCC2)N(C)C(=O)[C@@H]2CCN2C(=O)[C@H](C)N(C)C1=O` [Compound 1764] ([NMeS](Cyclopropyl)I[NMeA][Aze][NMeCha][Sar][hPhe(3-Cl-4-CF3)]P[Ac5c][NMeV][NMeD]-Piperidide; lactam N-11) showed an IC50 of 3.2 nM. For `CC[C@H](C)[C@@H]1NC(=O)[C@H](CC(C)C)N(C)C(=O)C[C@H](C(=O)N2CCCC2)N(C)C(=O)[C@H](C2CCCC2)N(C)C(=O)C2(CCCC2)NC(=O)[C@@H]2CCCN2C(=O)[C@H](CCc2ccc(C(F)(F)F)c(Cl)c2)NC(=O)CN(C)C(=O)[C@H](Cc2ccc(C(F)(F)F)cc2)N(C)C(=O)[C@@H]2CCN2C(=O)[C@H](C)N(C)C1=O` [Compound 1765] ([NMeL]I[NMeA][Aze][NMePhe(4-CF3)][Sar][hPhe(3-Cl-4-CF3)]P[Ac5c][NMeGly(cPent)][dNMeD]-Pyrrolidide; lactam N-11), the IC50 was 74 nM. `CC[C@H](C)[C@@H]1NC(=O)[C@H](C(C)C)N(C)C(=O)C[C@@H](C(=O)N2CCCCC2)N(C)C(=O)[C@H](C(C)C)N(C)C(=O)C2(CCCC2)NC(=O)[C@@H]2CCCN2C(=O)[C@H](CCc2ccc(C(F)(F)F)c(Cl)c2)NC(=O)CN(C)C(=O)[C@H](CC2CCCCC2)N(C)C(=O)[C@@H]2CCN2C(=O)[C@H](C)N(C)C1=O` [Compound 1767] ([NMeV]I[NMeA][Aze][NMeCha][Sar][hPhe(3-Cl-4-CF3)]P[Ac5c][NMeV][NMeD]-Piperidide; lactam N-11) gave an IC50 of 7.2 nM. With `CC[C@H](C)[C@@H]1NC(=O)[C@H](C)N(C)C(=O)C[C@@H](C)N(C)C(=O)[C@H](C(C)C)N(C)C(=O)C2(CCCC2)NC(=O)[C@@H]2CCCN2C(=O)[C@H](CCc2ccc(C(F)(F)F)c(Cl)c2)NC(=O)[C@@H](C)N(C)C(=O)[C@H](CC2CCCCC2)N(C)C(=O)[C@@H]2CCN2C(=O)[C@H](C)N(C)C1=O` [Compound 1773] (cyclo([Ac5c][NMeV][NMedβ3hAla][NMeA]I[NMeA][Aze][NMeCha][dNMeA][hPhe(3-Cl-4-CF3)]P)) the IC50 was 51 nM. For `CC[C@H](C)[C@@H]1NC(=O)[C@H](C)N(C)C(=O)C[C@@H](C)NC(=O)[C@H](C(C)C)N(C)C(=O)C2(CCCC2)NC(=O)[C@@H]2CCCN2C(=O)[C@H](CCc2ccc(C(F)(F)F)c(Cl)c2)NC(=O)[C@@H](C)N(C)C(=O)[C@H](Cc2ccccc2)N(C)C(=O)[C@@H]2CCCN2C(=O)CN(C)C1=O` [Compound 1783] (cyclo([Ac5c][NMeV][d(β3hA)][NMeA]I[Sar]P[NMeF][dNMeA][hPhe(3-Cl-4-CF3)]P)), the IC50 was 52 nM. `CCO[C@@H]1C[C@H]2C(=O)NC3(CCCC3)C(=O)N(C)[C@@H](CC(C)C)C(=O)N(C)[C@H](C(=O)N3CCOCC3)CC(=O)N(C)[C@@H](CC(C)C)C(=O)N[C@@H]([C@@H](C)CC)C(=O)N(C)CC(=O)N(C)CC(=O)N(C)[C@@H](CC3CCCCC3)C(=O)N(C)CC(=O)N[C@@H](CCc3ccc(C(F)(F)F)c(Cl)c3)C(=O)N2C1` [Compound 1785] ([NMeL]I[Sar][Sar][NMeCha][Sar][hPhe(3-Cl-4-CF3)][Hyp](Et)[Ac5c][NMeL][NMeD]-Morpholide; lactam N-11) was tested, and the IC50 was 0.45 nM. In the case of `CC(C)C[C@H]1C(=O)N[C@@H](C(C)C)C(=O)N(C)[C@@H](C)C(=O)N2CC[C@H]2C(=O)N(C)[C@@H](CC2CCCCC2)C(=O)N(C)CC(=O)N[C@@H](CCc2ccc(C(F)(F)F)c(Cl)c2)C(=O)N2CCC[C@H]2C(=O)NC2(CCCC2)C(=O)N(C)[C@@H](C(C)C)C(=O)N(C)[C@H](C(=O)N2CCCCC2)CC(=O)N1C` [Compound 1791] ([NMeL]V[NMeA][Aze][NMeCha][Sar][hPhe(3-Cl-4-CF3)]P[Ac5c][NMeV][NMeD]-Piperidide; lactam N-11), the IC50 is reported as 3 nM. With `CC[C@H](C)[C@@H]1NC(=O)[C@H](CC(C)C)N(C)C(=O)C[C@@H](C(=O)N2CCCCC2)N(C)C(=O)[C@H](C2CCCCC2)N(C)C(=O)C2(CCCC2)NC(=O)[C@@H]2CCCN2C(=O)[C@H](CCc2ccc(C(F)(F)F)c(Cl)c2)NC(=O)CN(C)C(=O)[C@H](Cc2ccc(C)cc2)N(C)C(=O)[C@@H]2CCN2C(=O)[C@H](C)N(C)C1=O` [Compound 1795] ([NMeL]I[NMeA][Aze][NMePhe(4-Me)][Sar][hPhe(3-Cl-4-CF3)]P[Ac5c][NMeChg][NMeD]-Piperidide; lactam N-11) the IC50 was 0.99 nM.
